Experimental data taken from publication PMC9502993 (Pharmaceuticals, 2022).
Where “and” joins values, the source holds several entries; their conditions need not be identical. Identical values can stand only once. Like-named read-outs stand apart in the source and are kept apart here.

Key:
[1] = Cell viability assay (Orangu WST-8, formazan-based); conditions: human, HEK293T cells
HEK293T cells [2] = assay: as above; conditions: 48 h
[3] = as above; conditions: human, Caki-2 cells
Caki-2 cells = assay: as above; conditions: 48 h
HepG2 cells [4] = assay: as above
Description: For the cell viability assay, HepG2 cells were incubated with various
normalized to the absorbance of the respective DMSO value to calculate cell viability. The experiments were performed in biological
(1 picture or pasted object on this page, not shown here)

HEK293T cells [5] = assay: Ca2+-release assay (Fluo-8-AM), GPCR off-target; assay type: cell-based; conditions: silvestrol 10, 50, 100 nM
Description: Next, 50,000 HEK293T cells were seeded in a 96-well poly-D-lysine-coated plate and incubated at 37 °C for 24 h. Cells were incubated with 4 µM Fluo-8-AM in HBSS for 1 h at 37 °C. After 1 h, the Fluo-8/HBSS was replaced by 100 µL HBSS. Five images per second were taken using an ImageXpress Micro Confocal High Content Imaging System (Molecular Device, San Jose, CA, USA). […] An image was taken every second for the next 20 s. The MetaXpress Software Version 6.7.1.157 (San Jose, CA, USA) was used to analyze the data. A threshold of fluorescence intensity was defined using cells before treatment and all cells with a fluorescence signal above the threshold level were counted and related to all cells.

HEK293T cells [6] = assay: IP3 assay, GPCR off-target; assay type: cell-based; conditions: silvestrol
[7] = Stability assay in human liver microsomes; assay type: in vitro ADME; conditions: pH 7.4, human liver microsomes 0.5 mg/mL, 100 nM
Description: The reaction was started with 1 mM NADPH diluted in potassium phosphate buffer. As control, samples without NAPDH were used. After various time points (0 h, 1 h, 2 h, 4 h), the reaction was stopped by adding ice-cold acetonitrile. The samples were centrifuged (5 min, 4 °C, 10,000× g) and supernatant was stored at −80 °C until the remaining drug concentration was determined by LC-MS/MS as described in detail below. The concentrations of the drugs were plotted against time and the elimination constant (k) was calculated from the slope (m):m = −k
Equation to determine half-life:T1/2 = 0.693/K
Equation to determine intrinsic clearance:Cl = Ln(2) × 1000/T1/2/protein concentration

Caco-2 cell barrier [8] = assay: Cell barrier integrity (TEER, cellZscope2); assay type: cell-based; conditions: 50 and 100 nM, 20 h
P-glycoprotein = biological target: T1, P-glycoprotein (Homo sapiens, UniProt P08183); conditions: cited from earlier work
T1 construct: endogenous in cells; host or cells: Caco-2 (high P-gp), Calu-3 (low P-gp)

MERS-CoV = MERS-CoV ref 6; read-out: EC50 (50% reduction of the virus titer); cited from earlier work
HCoV-229E = HCoV-229E ref 6; read-out: EC50 (50% reduction of the virus titer); cited from earlier work
Chikungunya virus = tested on: Chikungunya virus; set-up: method as in PMID 31931103; conditions: Chikungunya virus ref 5; read-out: EC50 (50% reduction of the virus titer); cited from earlier work
[9] = tested on: various viruses, such as corona- and Ebolaviruses; conditions: cited from earlier work
[10] = tested on: lung cancer cell line A549; set-up: method as in PMID 31931103; conditions: A549 ref 5; cited from earlier work
[11] = tested on: colon cancer cell line HT29; conditions: HT29 ref 17; cited from earlier work
[12] = tested on: hepatocellular carcinoma cell line Huh-7; conditions: Huh-7 ref 6; cited from earlier work
HeLa = HeLa ref 6; cited from earlier work
[13] = tested on: lung fibroblast cell line MRC-5; set-up: method as in PMID 31931103; conditions: MRC-5 ref 5; cited from earlier work
primary monocytes = tested on: primary monocytes; set-up: method as in PMID 35336926; conditions: primary monocytes ref 9; cited from earlier work
primary M1 macrophages = tested on: primary M1 macrophages; set-up: method as in PMID 35336926; conditions: primary M1 macrophages ref 9; cited from earlier work
primary M2 macrophages = tested on: primary M2 macrophages; set-up: method as in PMID 35336926; conditions: primary M2 macrophages ref 9; read-out: CC50 (no cytotoxic effects up to); cited from earlier work
T cells = tested on: T cells; set-up: method as in PMID 35336926, PMID 1360266; conditions: T cells ref 9, 34; cited from earlier work
primary dendritic cells = tested on: primary dendritic cells; set-up: method as in PMID 35336926; conditions: primary dendritic cells ref 9; cited from earlier work
[14] = mice, formulated in hydroxypropyl-β-cyclodextrin, intraperitoneal ref 30; cited from earlier work
[15] = tested on: non-transformed primary cells; conditions: several non-transformed primary cells ref 6, 20, 30; cited from earlier work
Caco-2 cells [16] = assay: Cellular uptake assay (LC-MS/MS)
Calu-3 cells [17] = assay: Cellular uptake assay (LC-MS/MS)
Caco-2 cell barrier [18] = assay: Transport assay across cell barrier
Calu-3 cell barrier = assay: Transport assay across cell barrier
HepG2 cells [19] = assay: In Vitro Micronuclei Plus assay (flow cytometry)
HEK293T cells [20] = assay: cAMP assay (GloSensor luciferase), GPCR off-target; conditions: silvestrol 10, 50, 100 nM
Caco-2 cells [21] = assay: Cell viability assay (Orangu WST-8, formazan-based); conditions: for effect on cell viability: 48 h
Calu-3 cells [22] = assay: as above

T1 sequence (P08183 whole entry): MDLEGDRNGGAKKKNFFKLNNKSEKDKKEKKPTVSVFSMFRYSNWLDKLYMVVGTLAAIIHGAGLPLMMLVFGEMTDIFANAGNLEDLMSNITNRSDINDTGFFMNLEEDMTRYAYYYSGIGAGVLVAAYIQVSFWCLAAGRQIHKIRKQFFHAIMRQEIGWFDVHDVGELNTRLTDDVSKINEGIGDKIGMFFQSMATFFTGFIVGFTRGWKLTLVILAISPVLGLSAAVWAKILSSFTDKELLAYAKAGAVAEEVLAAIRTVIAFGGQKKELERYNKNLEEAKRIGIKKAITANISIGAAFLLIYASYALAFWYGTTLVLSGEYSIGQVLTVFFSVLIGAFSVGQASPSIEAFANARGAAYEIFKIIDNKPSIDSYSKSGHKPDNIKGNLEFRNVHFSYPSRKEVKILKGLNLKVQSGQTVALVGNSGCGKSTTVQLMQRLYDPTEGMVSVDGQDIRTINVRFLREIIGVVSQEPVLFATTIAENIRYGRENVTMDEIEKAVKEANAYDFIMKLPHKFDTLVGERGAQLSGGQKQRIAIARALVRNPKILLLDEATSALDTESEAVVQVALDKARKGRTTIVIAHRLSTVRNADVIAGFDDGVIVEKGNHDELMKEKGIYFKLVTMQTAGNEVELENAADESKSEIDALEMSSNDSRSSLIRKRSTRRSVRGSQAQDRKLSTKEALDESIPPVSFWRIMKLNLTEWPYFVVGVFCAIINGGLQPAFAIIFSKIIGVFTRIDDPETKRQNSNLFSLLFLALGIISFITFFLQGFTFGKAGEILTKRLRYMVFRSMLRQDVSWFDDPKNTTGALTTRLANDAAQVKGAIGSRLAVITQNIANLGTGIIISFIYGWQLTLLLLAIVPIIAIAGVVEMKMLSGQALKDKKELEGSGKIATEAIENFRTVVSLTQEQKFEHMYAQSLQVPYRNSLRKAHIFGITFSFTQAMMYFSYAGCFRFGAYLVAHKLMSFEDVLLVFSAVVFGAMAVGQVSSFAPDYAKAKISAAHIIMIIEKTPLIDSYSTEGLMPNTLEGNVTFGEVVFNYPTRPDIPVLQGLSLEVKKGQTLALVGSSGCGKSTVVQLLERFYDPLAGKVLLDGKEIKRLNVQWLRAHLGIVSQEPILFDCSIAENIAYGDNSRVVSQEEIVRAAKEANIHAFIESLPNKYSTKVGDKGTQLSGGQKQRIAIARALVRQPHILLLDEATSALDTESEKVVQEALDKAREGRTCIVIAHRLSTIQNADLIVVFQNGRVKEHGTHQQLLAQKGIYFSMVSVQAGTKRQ

## COC(=O)[C@H]1[C@@H](O)[C@@]2(O)c3c(OC)cc(O[C@@H]4O[C@@H]([C@H](O)CO)CO[C@H]4OC)cc3O[C@@]2(c2ccc(OC)cc2)[C@@H]1c1ccccc1 [silvestrol]
[1]
  CC50 at 48 h: 16 nM
HEK293T cells [2]
  CC50: 15.9 nM
[3]
  CC50 at 48 h: 37 nM
Caki-2 cells
  CC50: 37.2 nM
HepG2 cells [4]; 48 h
  effect on cell viability: only minor effects
HepG2 cells [4]; concentrations up to 1000 nM
  reduction of viability: about 50%
HEK293T cells [5]
  induction of Ca2+-release: did not significantly induce
HEK293T cells [6]
  induction of IP3 synthesis: did not significantly induce
[7]
  half-life at 100 nM: 11.6 ± 1.2 h
[7]; read-out: intrinsic clearance
  microsomal CLint at 100 nM: 1.7 ± 0.5 µL/min/mg
Caco-2 cell barrier [8]
  effect on TEER readings (cell barrier integrity): reduced TEER readings only slightly
P-glycoprotein
  substrate of P-glycoprotein: substrate
MERS-CoV
  EC50: ~5 nM
HCoV-229E
  EC50: ~5 nM
Chikungunya virus
  EC50: ~5 nM
[9]
  reduction of virus titers: up to 4 log phases
[9]; read-out: EC50 for inhibition of virus replication
  EC50: 1 to 100 nM
[9]; various viruses, such as corona- and Ebolaviruses (abstract), read-out: EC50
  EC50: ~5 nM
[10]
  CC50: 9.42 nM
[11]
  CC50: 0.7 nM
[12]
  CC50: 30 nM
HeLa
  CC50: 5 nM
[13]
  cytotoxicity (no cytotoxicity up to): > 50 µM
Primary monocytes
  CC50: 29 nM
Primary M1 macrophages
  CC50: 45.6 nM and 46 nM
Primary M2 macrophages
  CC50: > 100 nM
T cells
  cytotoxicity (no cytotoxic effects up to): > 100 nM
Primary dendritic cells
  cytotoxicity (no cytotoxic effects up to): > 100 nM
[14]
  intraperitoneal systemic availability: 100%
[15]
  cytotoxicity: no major cytotoxicity
Caco-2 cells [16]; 25 nM, 2 and 4 h
  cellular uptake (maximum): about 2.5 pg/µg protein
Caco-2 cells [16]; 25 nM, at maximum
  uptake related to used silvestrol: ≈ 1.3%
Caco-2 cells [16]; preincubated with 1 µM cyclosporine 60 min
  change of intracellular silvestrol level on inhibition of P-glycoprotein: leads to an increase in intracellular silvestrol levels
Calu-3 cells [17]; at maximum
  uptake related to used amount of silvestrol: ≈ 3.7%
Calu-3 cells [17]; concentration- and time-dependent
  cellular uptake (maximum): about 7.7 pg/µg protein
Caco-2 cell barrier [18]; 50 nM, 24 h
  transport rate: 1.3%
Caco-2 cell barrier [18]; 100 nM, 4 h
  transport rate: 0.5%
Caco-2 cell barrier [18]; 100 nM, 24 h
  transport rate: 1.9%
Calu-3 cell barrier; 50 nM, 24 h
  transport rate: 7.8%
Calu-3 cell barrier; 100 nM, 4 h
  transport rate: 0.8%
Calu-3 cell barrier; 100 nM, 24 h
  transport rate: 10.6%
HepG2 cells [19]; 50 nM
  clastogenic effects (micronuclei): clastogenic effects
HepG2 cells [19]; silvestrol concentrations up to 50 nM
  aneugenic effects (hypodiploid cells): no aneugenic effects
HEK293T cells [20]
  induction of cAMP synthesis: did not significantly induce
Caco-2 cells [21]
  effect on cell viability: did not reduce viability below 50%
Caco-2 cells [21]; listed as Silvestrol
  effect on cell viability: only minor effects
Caco-2 cells [21]; concentrations up to 1000 nM
  reduction of viability: about 50%
Caco-2 cells [21]; preincubated with 1 µM cyclosporine 60 min, then 48 h
  change of cytotoxicity on inhibition of P-glycoprotein: increased the cytotoxic potential
Calu-3 cells [22]; 48 h
  effect on cell viability: did not reduce viability below 50%
Calu-3 cells [22]; concentrations up to 1000 nM
  reduction of viability: about 50%
